Patent publication US6586006B2, “Solid delivery systems for controlled release of molecules incorporated therein and methods of making same” (Elan Drug Delivery Limited, priority 1994, dated 2003)
“Also recorded” adds a separate entry of the source.

Key:
[1] = Resistance of glasses to devitrification on exposure to relative humidity; assay type: physicochemical
Description: Glasses were made by evaporating DCM on a hotplate set at 65° C. from a 25% solutions of TOAC (50% solutions often deposited crystals in the pipette tip). Drying was carried out for 2 hr to be certain of complete dryness. Uniform glasses were produced by using an Eppendorf-type pipette to deliver 100 μl to a slide recently placed on the hotplate and then removing about 50 μl by using the clear/expel volume of the pipette.
XPDO was therefore incorporated into a TOAC glass by dissolving both crystalline TOAC and XPDO in DCM and evaporating the solvent at 70° C. on a hotplate. XPDO was used in proportions of 10% and 20% of total solids in the final TOAC glass.
(§1) The resulting glasses were tested for their utility as controlled release matrices in two ways. First, they were assessed for their ability to resist devitrification on exposure to high RH at RT. Second, they were immersed in water or phosphate-buffered saline (PBS) to study their solubility and rate of erosion by surface recrystallization.

[2] = Devitrification / recrystallization of glasses immersed in liquid water; assay type: physicochemical
Description: However, when immersed in liquid water, the surface of the glass slowly recrystallized so that microscopic pyramidal crystals of TOAC could be seen under an inverted microscope within 15-30 min of addition of water. Crystallization was slowly progressive and within another few minutes small clusters of the typical needle shaped crystals of XPDO appeared. Since neither the needle shaped XPDO crystals nor the pyramidal TOAC crystals were adherent to the underlying glass, they were washed away readily to reveal a fresh glass surface for further slow dissolution. The complete exclusion of XPDO from the TOAC crystals ensured that this molecule, previously incorporated in the glassy TOAC matrix, was now released into the liquid phase.
as §1
The 10% α-GPAC and 10% TOPR in TOAC glasses and the 50:50 molar ratio TOAC:α-GPAC glass were also immersed in water to examine their rate of devitrification in liquid water rather than humid air.

[3] = Stability, recovery and release of XPDO from HDC glass (HPLC); assay type: physicochemical
Description: Release characteristics of the vitreous HDC solid dose delivery systems were studied by monitoring the release of MB9 from TOAC/XPDO glasses as shown in FIG. 15. For analysis of stability of active in the vitreous HDC solid dose delivery systems, XPDO was recovered from the samples by dissolving the glass in acetonitrile and analyzing by HPLC. There was full recovery of the guest substance even after storage at 45° C. for 4 weeks.
For analysis XPDO was extracted from the spray-dried powder by dissolving the powder in acetonitrile and then diluting the acetonitrile with sodium phosphate buffer prior to analysis by HPLC. Samples were set up to test stability of XPDO in the spray dried formulations at 45° C. and stored over saturated Zinc sulphate (RH 80-85%).
For release into sodium phosphate buffer, 0.0868 g of the spray dried powder was shaken in 10 mls of the buffer for 1 minute. The suspension was then filtered through a 0.2 μm filter. […] Bioavailability of the steroid from the delivery system was tested by immersion in an aqueous solution for a short time. Stability of the steroid in the spray-dried formulation was tested at high humidity and 45° C. (both factors are important if the application as an inhalable powder is to be successful). The results indicated a resistance to high humidity, stability in the glass and ready bioavailability in vitro tests.

[4] = Glass transition temperature (Tg) by thermal analysis (DSC); assay type: physicochemical
Source text: In general, the tendency to crystallize, from a cooling melt or with reducing solvent, is low. Both devitrification and the fluidity of the melt at temperatures close to Tg, can be controlled by modifiers such as other derivative sugars and certain organic actives. The following two tables, generated as described in the Examples presented below, provide Tg and melting temperature data for a variety of HDCs suitable for use, either alone, or in a composite glass, herein.
Dissolution of synthetic corticosteroid XPDO (described below) into a TOAC melt and quenching to form the vitreous solid dose delivery system was achieved. By looking at the release of MB9 into aqueous solution, these experiments tested the compatibility of the steroid within the glass, subsequent recovery of the steroid and studied the effect that XPDO has on the properties of the delivery system formed looking at the release of MB9 into aqueous solution. TOAC (3.21 g) was pre-melted at 150° C., before being quenched to glass. The glass was finely ground with XPDO (0.15 g) before being remelted. The clear melt was again quenched to yield the composite HDC/active glass. Thermal analysis was carried out on a Rheometric Scientific Differential Scanning Calorimeter (DSC) at a heating rate of 10°/min under a nitrogen atmosphere. The following samples were prepared:
Studies were performed using the synthetic corticosteroid XPDO dissolved in DCM. The solution was spray dried in a Buchi B-191 spray drier, using an inlet temperature of 40° C. […] XPDO was incorporated at 20 wt %. The powder was completely amorphous as confirmed by thermal analysis (Tg=46° C.).

[5] = Encapsulation of organic substances in α-D-glucose pentaacetate glass; assay type: physicochemical
Description: Excellent recoveries were obtained in the encapsulation of several organic substances in the glasses. Glass discs of α-D-Glucose pentaacetate containing 2% w/w of the materials listed in Table 4 were formed by melting and quenching and then ground. Photochrome II is 5-chloro-1,3-dihydro-1,3,3-trimethyl spiro[2H-indole-2,3′-[3H]-napth[2,1-b] [1,4]-oxazine. The encapsulated materials were extracted by the suitable solvent such as methanol or water.
Pesticide-like Oxadiazon was dissolved easily in the melt of this glass at about 15% w/w without problem.

[6] = Controlled release of encapsulated MB9 dye from HDC glass beads/discs; assay type: physicochemical
Description: In the following experiments, the delivery system was preformulated, whether as a single material, or as a mixed composition. This was carried out by intimately grinding the component HDCs together, followed by careful, controlled melting in a furnace, between 120-140° C. and with normal atmosphere to form melts. The melts were quenched to glass by pouring over a brass block. This glass was then finely ground.
MB9 dye (1 or 5 wt %) was mixed with the ground glass prior to re-melting at 140° C. The melt was quenched to form small glass beads (2.5 mm diameter) which were used in controlled release experiments.
Controlled release of encapsulated dye was monitored by suspending three such beads in 25 or 50 ml of deionized water or PBS solution at ambient temperatures (27-30° C.) or at 37° C., as indicated. The media were undisturbed, except for periodic stirring and were replaced at set intervals with fresh media (generally at 72 hr intervals). Both single HDC glasses and composite HDC glasses were formed. […] The use of other HDCs as glass modifiers in the composite HDC formulations enable the tailoring of the glasses formed to yield the release characteristics desired.
In FIG. 8, the results were obtained from TOAC glass discs (6 mm×2.5 mm) with MB9 dye evenly dispersed therein at 2 wt %. Release was controlled at 25° C. with gentle stirring and media changes at regular intervals. Note the linear release of MB9 dye over a 55 day period. The results presented in FIG. 8 indicate that a pure HDC vitreous delivery vehicle system gives zero-order release rates of guest substances. The results presented in FIGS. 9-14 show variation on release rates by changing the ratios of different HDCs in the delivery systems, changing the carbohydrate backbone length and by changing the nature of the derivative on the carbohydrate backbone. In each instance it is clear that the HDC delivery systems allow a wide range of release rates that can be tailored to the guest substance and the delivery thereof.

[7] = tested on: African Green monkey kidney-derived cell line Vero; experiment: In vitro toxicity of TOAC in Vero cell culture; assay type: cell-based; settings: saturated solution in 10-fold serial dilution or powder added to medium; week of culture
Description: A saturated solution of TOAC in deionised distilled water (0.42 g in 20 mls) was tested for toxicity in vitro using the African Green monkey kidney-derived cell line Vero, in either a 10-fold serial dilution or by adding the TOAC powder directly to the tissue culture medium.

**Q.** Which “HDC glass stability at high relative humidity” value ([1]; 10% (w/v) guest in HDC (TOAC) glass, RH up to 95%, room temperature) does the source give for CCCC1OC2CC3C4CC(F)C5=CC(=O)CCC5(C)C4(F)C(O)CC3(C)C2(C(=O)CO)O1 (stereo not drawn) [XPDO, 6α,9α-difluoro-11β,21-dihydroxy-16α,17α-propyl methylene dioxy-4-pregnene-3,20-dione] here?
**A.** The value was “stable when exposed to relative humidities of up to 95% at room temperature for over a month”.

**Q.** And the “change in glass structure such as recrystallization” value ([1]; guest in TOAC glass from DCM, stored at RH of 75%, 81%, 90% and 95% for 4 weeks)?
**A.** Its value is “no change in glass structure”.

**Q.** And the “time to release of guest substance when added to liquid water” value ([2]; 10% (w/v) guest in HDC glass)?
**A.** The value was 5 to 10 min.

**Q.** And the “time to surface recrystallization after immersion in water” value ([2]; glass immersed in liquid water)?
**A.** Its value is 15 to 30 min.

**Q.** What about the “degradation on HPLC analysis” value ([3]; spray dried glass powder, 4 weeks storage at 45° C. and 85% RH) of the same compound?
**A.** The value was “No evidence of any degradation”.

**Q.** What about the “release into sodium phosphate buffer” value ([3]; spray dried powder shaken in buffer for 1 minute, filtered, HPLC) of the same compound?
**A.** Its value is “effectively being released into aqueous solution”.

**Q.** What about the Tg ([4]; spray dried amorphous powder, XPDO incorporated at 20 wt %) of the same compound?
**A.** The Tg was 46 °C.

**Q.** Which “amount dissolved in the melt of the glass” value [5] does the source give for CC(C)Oc1cc(-n2nc(C(C)(C)C)oc2=O)c(Cl)cc1Cl [Oxadiazon] here?
**A.** The value was “about 15 % w/w”.

**Q.** Which results are given for CC(=O)OCC1OC(OC2OC(COC(C)=O)C(OC(C)=O)C(OC(C)=O)C2OC(C)=O)C(OC(C)=O)C(OC(C)=O)C1OC(C)=O (stereo not drawn) [TOAC, trehalose octaacetate]?
**A.** recrystallization of glass on storage ([1]; TOAC glass from DCM on slides, room temperature, 50-60% relative humidity): gradually recrystallized over 1 month; Initial Form ([1]; mixed HDC glasses (Table 6)): Glass; After RH 24 hr ([1]; mixed HDC glasses exposed to high RH (75% to 95%) at RT, 24 hr): Cryst + + + +; devitrification at RH from 75% to 95% ([1]; thin glass films and quenched disks, RT, overnight exposure): very susceptible to devitrification at high RH; also recorded: crystallized at all RHs from 75% to 95%; Tg ([4]; glass quenched from melt, DSC, heating rate 10°/min, nitrogen): Tg = 50.1 °C; Tg/° C. ([4]; single HDC glasses (Table 1)): 50 °C; Tg/° C. ([4]; single and composite HDC glasses, mole ratios of HDCs in glass (Table 2)): 50 °C; period of linear release of MB9 dye ([6]; TOAC glass discs 6 mm×2.5 mm, MB9 2 wt %, PBS, 25° C., FIG. 8): 55 days; MB9 release characteristics ([6]; TOAC glass, MB9 dye): zero-order release characteristics; cell division [7]: normal; toxic effects [7]: No toxic effects were observed

**Q.** Which results are given for CC(=O)OC[C@H](OC(C)=O)[C@@H](OC(C)=O)[C@H](OC(C)=O)[C@@H](COC(C)=O)OC(C)=O [SHAC, sorbitol hexaacetate]?
**A.** Tg/° C. ([4]; single HDC glasses (Table 1)): −6 °C; melting point: 100 to 104 °C
